Measurements published in US20030212105A1, “Novel anti-fertility agent” (priority 2002, published 2003).

What was measured:
pregnant female rats = conditions: cited from earlier work
[1] = Solubility in water (preparation of drug solution); format: physicochemical; conditions: distilled water
female albino rats [2] = test: Preovulatory effects of roxatidine acetate in female albino rats; format: in vivo, rat; conditions: 2.5, 10, 15 & 20 mg/kg for 15 consecutive days before mating; dose group not stated
Description: Animals with normal estrus cycle were divided into […] with 10 animals in each group. Group I served as control and received distilled water orally. Animals in Group II, II, IV & V were administered roxatidine acetate at the doses of 2.5, 10, 15, & 20 mg/kg body weight respectively, for 15 consecutive days. During this period daily vaginal smears were taken to observe the regularity of the estrus cycle.
The females in all the groups were then paired with males of proven fertility. Daily vaginal smears were taken until the animals successfully mated. This was indicated by the presence of spermatozoa in the vaginal smears and this was taken as day 1 of pregnancy. On day 10 each animal was laprotomized and the no. of implants/resorption sites and the no. of corpora lutea were counted. The number of litters delivered at the end of the gestation period were 2.

female albino rats [3] = test: Anti-implantation studies of roxatidine acetate in female rats (post coital); format: in vivo, rat
Description: Roxatidine was screened as a post coital anti-fertility agent on different days of pregnancy i.e. day 1st, days 1st-3rd day 4th i.e. day of ([…] days 1st-5th, days 1st-7th and day 15th-20th i.e. period of organogenesis) post coitum. The aim of the study was to determine the minimum possible dose of drug showing anti implantation activity and the specific days of gestation period when the activity is maximum studies were carried out in order to determine the possible mechanism of action of the drug. Further ELISA was conducted to assess the effects of roxatidine on the serum level of estrogen and progesterone respectively.
Daily vaginal smears of the female albino rats were taken and the regular periodicity of the estrus cycle was checked.
The animals were held, ventral side up and a drop of 0.9% saline was inserted into the vagina with the help of a Pasteur pipette, carefully, without damaging the vaginal wall to avoid false positive smears. The drop of normal saline was aspirated and replaced several times with the vaginal fluid, withdrawn and transferred to a microscopic slide. A coverslip was placed carefully on the smear avoiding the air bubble. The slide was then observed under a compound microscope (magnification-45×) and the stage of estrus cycle was determined.
Female rats in proestrus or estrus stage were housed with mature male rats (in the ratio 3 females:1 male). Each female was examined for the presence of spermatozoa in the early morning. The day on which this sign of mating is seen is taken as day 1 of pregnancy. The female was then separated and caged singly. Roxatidine was administered orally to the animal once daily on specific days of pregnancy at different concentrations.
Pregnant rats were divided into 5 groups of 10 animals each. To group I, which served as control, a constant volume of distilled water was administered orally with the help of a catheter. The drug namely, roxatidine was administered at doses of 2.5, 10, 15 & 20 mg/kg body weight orally, on specific days of pregnancy.
Fifty albino rats were divided into groups of 10 animals each. Group I served as control and received distilled water. Group II to V received Roxatidine acetate at doses of 2.5,10,15 & 20 mg/kg body weight, orally respectively on day 1 postcoital with the help of a catheter.
On day 10 of pregnancy the animal was laprotomized and the number of implants present in both the uterine horns as well as the number of corpora lutea on each ovary was counted. The animals were allowed to complete the gestation period (usually 21-23 days) and the number of litters delivered, if any were counted In this case, 2 litters were delivered.
Fifty albino rats were divided into groups of 10 animals each. Group I served as control and received distilled water. Group II to V received Roxatidine acetate at doses of 2.5,10,15 & 20 mg/kg body weight, orally respectively on day 1-3 postcoital with the help of a catheter.
On day 10 of pregnancy the animal was laprotomized and the number of implants present in both the uterine horns as well as the number of corpora lutea on each ovary was counted.
Fifty albino rats were divided into groups of 10 animals each. Group I served as control and received distilled water. Group II to V received Roxatidine acetate at doses of 2.5,10,15 & 20 mg/kg body weight, orally respectively on day 4 postcoital with the help of a catheter.
On day 10 of pregnancy the animal was laprotomized and the number of implants present in both the uterine horns as well as the number of corpora lutea on each ovary was counted. The animals were allowed to complete the gestation period (usually 21-23 days) at the end of which 3 litters were found.
Fifty albino rats were divided into groups of 10 animals each. Group I served as control and received distilled water. Group II to V received Roxatidine acetate at doses of 2.5, 10, 15 & 20 mg/kg body weight, orally respectively on day 1-7 postcoital with the help of a catheter. […]

| SMILES | anti-implantation effects (pregnant female rats; oral, daily for 1-7 days post coitum, pregnant female rats) | oestrogenic/anti-oestrogenic activity (pregnant female rats; rats) | solubility in water [1] | number of litters delivered at the end of the gestation period (female albino rats [2]) | number of litters found at end of gestation period (female albino rats [3]; 2.5, 10, 15 & 20 mg/kg orally on day 1-3 postcoital, gestation 21-23 days) | number of litters found at end of gestation period (female albino rats [3]; 2.5, 10, 15 & 20 mg/kg orally on day 1-5 postcoital, gestation 21-23 days) | number of litters found at end of gestation period (female albino rats [3]; 2.5, 10, 15 & 20 mg/kg orally on day 1-7 postcoital, gestation 21-23 days) | number of litters delivered at end of gestation period (female albino rats [3]; 2.5, 10, 15 & 20 mg/kg orally on day 1 postcoital, gestation 21-23 days, dose group not stated) | number of litters found at end of gestation period (female albino rats [3]; 2.5, 10, 15 & 20 mg/kg orally on day 4 postcoital, gestation 21-23 days, dose group not stated) | number of litters seen at end of gestation period (female albino rats [3]; 2.5, 10, 15 & 20 mg/kg orally on day 15-20 postcoital, gestation 21-23 days, dose group not stated) | inhibition of implantation (female albino rats [3]; administered in animal models) |
| --- | --- | --- | --- | --- | --- | --- | --- | --- | --- | --- | --- |
| CN/C(=N/CCSCc1nc[nH]c1C)NC#N [cimetidine] | exhibited anti-implantation effects | did not possess oestrogenic/anti-oestrogenic activity | – | – | – | – | – | – | – | – | – |
| CC(=O)OCC(=O)NCCCOc1cccc(CN2CCCCC2)c1 [Roxatidine acetate] | – | – | readily and completely soluble in water | 2 | no litters were found | no litters were found | no litters were found | 2 | 3 | 2 | effective in inhibiting implantation |
